For one experiment, the target named is T1, human ERα (Homo sapiens, UniProt P03372).
T1 sequence (P03372 1-595): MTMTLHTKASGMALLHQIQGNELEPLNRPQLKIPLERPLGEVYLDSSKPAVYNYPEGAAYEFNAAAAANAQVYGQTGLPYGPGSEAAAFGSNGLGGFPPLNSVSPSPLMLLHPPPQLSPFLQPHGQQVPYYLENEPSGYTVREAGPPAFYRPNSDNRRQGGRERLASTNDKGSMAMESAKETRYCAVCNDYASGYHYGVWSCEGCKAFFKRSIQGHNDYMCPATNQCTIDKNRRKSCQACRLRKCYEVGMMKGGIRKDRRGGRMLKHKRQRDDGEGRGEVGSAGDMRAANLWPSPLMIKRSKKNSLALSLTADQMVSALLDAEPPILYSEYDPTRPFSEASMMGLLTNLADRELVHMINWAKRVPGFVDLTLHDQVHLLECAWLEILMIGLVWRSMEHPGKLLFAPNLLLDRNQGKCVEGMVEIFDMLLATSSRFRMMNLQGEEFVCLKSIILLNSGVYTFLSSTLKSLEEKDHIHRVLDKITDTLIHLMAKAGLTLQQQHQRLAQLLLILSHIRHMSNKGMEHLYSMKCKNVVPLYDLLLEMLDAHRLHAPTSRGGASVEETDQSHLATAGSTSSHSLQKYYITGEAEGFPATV
In words: competitive radiometric binding assay with [3H]estradiol, ERα.

In a further experiment the target is human ERβ (Homo sapiens, UniProt Q92731). In words: competitive radiometric binding assay with [3H]estradiol, ERβ.
human ERβ, sequence (Q92731 whole entry): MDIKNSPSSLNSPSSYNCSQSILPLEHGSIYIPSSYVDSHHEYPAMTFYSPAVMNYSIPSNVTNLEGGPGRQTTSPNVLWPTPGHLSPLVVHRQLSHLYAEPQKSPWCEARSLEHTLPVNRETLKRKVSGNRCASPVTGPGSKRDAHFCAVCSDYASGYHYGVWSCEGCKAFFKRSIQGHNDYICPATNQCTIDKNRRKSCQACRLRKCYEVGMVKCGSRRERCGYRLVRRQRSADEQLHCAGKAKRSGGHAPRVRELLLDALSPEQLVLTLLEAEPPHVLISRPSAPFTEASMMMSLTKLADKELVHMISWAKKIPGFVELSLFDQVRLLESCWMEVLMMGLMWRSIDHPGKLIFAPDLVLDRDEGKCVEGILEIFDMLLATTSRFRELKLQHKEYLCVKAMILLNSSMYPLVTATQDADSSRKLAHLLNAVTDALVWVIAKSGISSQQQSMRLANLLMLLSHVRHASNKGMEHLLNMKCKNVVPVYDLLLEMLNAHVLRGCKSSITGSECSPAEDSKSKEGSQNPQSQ

A word on the Ki: it is the equilibrium dissociation constant of an inhibitor or competing ligand from its target. A high value points to weaker binding.

In the case of `O=C1C[C@@H](c2ccc(O)cc2)Oc2cc(O)cc(O)c21` [NCI-34875, Naringenin], the Ki was determined as 2560 ± 500 nM on human ERα and 3.1 ± 0.9 µM on human ERβ.

The values are drawn from paper PMC4780411 (Journal of chemical information and modeling, 2015).
